The source of these data is patent US6503942B2, “Ethers of O-Desmethyl venlafaxine” (Wyeth, priority 1999, dated 2003).

As usually defined, the melting point is the temperature, or range, at which the solid turns liquid.

`CN(C)CC(c1ccc(OCOC(=O)C(C)(C)C)cc1)C1(O)CCCCC1.O=C(O)/C=C\C(=O)O` (stereo not shown) [Example 5, {4-[2-(Dimethylamino)-1-(1-hydroxycyclohexyl)ethyl]phenoxy}methyl Pivalate Maleate Salt] showed a melting point of 112 to 113 °C.
